Data on 1 molecule can be found in patent US20060281806A1, “Treatment and inhibition of disease conditions using flexible heteroarotinoids” (priority 2005, published 2006).

Molecules are shown by their SMILES.

This test relates to NCI human tumor cell line panel. In words: SHetA2 cytotoxicity in NCI human tumor cell line panel. The format is cell-based. The settings on record: 48 h. The method, then:
The SHetA2 compound was evaluated in the National Cancer Institute (NCI) human tumor cell line panel by the Developmental Therapeutics Program (DTP). The human tumor cell lines were grown in RPMI 1640 medium containing 5% fetal bovine serum and 2 mM L-glutamine. Cells were inoculated into 96 well microtiter plates at densities ranging from 5,000 to 40,000 cells/well depending on the doubling time of individual cell lines and incubated for 24 h prior to addition of SHetA2. After 24 h, two plates of each cell line were fixed in situ with TCA, to represent a measurement of the cell population for each cell line at the time of drug addition (Tz). Drugs were dissolved in dimethyl sulfoxide (DMSO) and diluted in complete medium containing 50 μg/ml gentamicin, prior to addition to the culture wells. […] […] The absorbance was read on an automated plate reader at a wavelength of 515 nm. Using the seven absorbance measurements (time zero, (Tz), control growth, (C), and test growth in the presence of drug at the five concentration levels (Ti)), the GI50 was calculated from [(Ti−Tz)/(C−Tz)]×100=50. […]

For the molecule `CC1(C)CC(C)(C)c2cc(NC(=S)Nc3ccc([N+](=O)[O-])cc3)ccc2S1` [SHetA2], the percent growth entry (10 and 100 μM SHetA2, majority of cell lines) is “negative percent growth levels”. Moreover, the GI50 values result (55 cell lines representing 9 cancer types) was “micromolar range”.
